In patent publication US7998978B2 (Pfizer Inc., priority 2006, dated 2011):

Molecular target: T1, JNK1α1 (Homo sapiens, UniProt P45983)
T1 construct: catalytic domain containing amino acids 1-364 and N-terminal hexahistidine tag; hexahistidine (His6) (N); made in house; host or cells: E. coli BL21 (DE3)
Test: Coupled spectrophotometric (PK/LDH) JNK1α1 assay: % inhibition and Ki determination
Assay type: biochemical
Conditions: @1 uM; read-out: % Inhibition JNK-1
Summary of the method: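 Initial rates were taken from the absorbance decrease at 340 nm at 30° C. Ki was fitted with a tight-binding model over 11 concentrations (top 100 μM); single-point inhibition was tested at 1 or 10 μM.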

T1 sequence (P45983 1-364): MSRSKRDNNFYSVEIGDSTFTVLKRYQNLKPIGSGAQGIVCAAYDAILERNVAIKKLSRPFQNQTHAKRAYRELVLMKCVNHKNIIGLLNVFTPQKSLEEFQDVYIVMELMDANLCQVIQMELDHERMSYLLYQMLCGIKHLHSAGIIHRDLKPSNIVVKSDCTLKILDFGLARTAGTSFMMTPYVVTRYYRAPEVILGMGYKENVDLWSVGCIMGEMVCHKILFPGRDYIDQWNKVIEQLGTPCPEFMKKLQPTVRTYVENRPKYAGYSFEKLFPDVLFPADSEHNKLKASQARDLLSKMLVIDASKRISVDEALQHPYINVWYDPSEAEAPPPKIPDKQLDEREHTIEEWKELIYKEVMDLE

Compared with `O[C@H]1CC[C@H](Nc2ncc3ccc(OC[C@H]4CCCN4Cc4ccccc4)cc3n2)CC1` [Example 294, trans-4-[(7-{[(2R)-1-benzylpyrrolidin-2-yl]methoxy}quinazolin-2-yl)amino]cyclohexanol], `CCn1nc(C)c(CNC(=O)c2cccc3cnc(N[C@H]4CC[C@H](O)CC4)nc23)c1C` [Example 496, N-[(1-ethyl-3,5-dimethyl-1H-pyrazol-4-yl)methyl]-2-[(trans-4-hydroxycyclohexyl)amino]quinazoline-8-carboxamide] is higher in inhibition at 1 µM: 24% for the first, 41% for the second.

Same assay, conditions: JNK-1

`O=C(CN1N=C(c2ccccc2)CCC1=O)Nc1cc2cc(-c3cn[nH]c3)ccc2cn1` [Example 34, 2-(6-oxo-3-phenyl-5,6-dihydropyridazin-1(4H)-yl)-N-[6-(1H-pyrazol-4-yl)isoquinolin-3-yl]acetamide] and `O=C(CN1Cc2ccccc2C1=O)Nc1cc2cc(-c3cn[nH]c3)ccc2cn1` [Example 25, 2-(1-oxo-1,3-dihydro-2H-isoindol-2-yl)-N-[6-(1H-pyrazol-4-yl)isoquinolin-3-yl]acetamide] are within 1.5-fold of each other in Ki: 0.017 µM for the first, 0.014 µM for the second.

Compared with `O=C(CC1CCOCC1)Nc1cc2cc(-c3cn[nH]c3)ccc2cn1` [Example 7, N-[6-(1H-pyrazol-4-yl)isoquinolin-3-yl]-2-(tetrahydro-2H-pyran-4-yl)acetamide], `COc1ccc(CC(=O)Nc2cc3cc(-c4cn[nH]c4)ccc3cn2)cc1` [Example 1, 2-(4-methoxyphenyl)-N-[6-(1H-pyrazol-4-yl)isoquinolin-3-yl]acetamide] is 3.8-fold higher in Ki: 0.02 µM for the first, 0.076 µM for the second. The first binds more tightly here.

Going from `O=C(NCc1nc2cc(F)ccc2[nH]1)c1ccc2cnc(N[C@H]3CC[C@H](O)CC3)nc2c1` [Example 354, N-[(5-fluoro-1H-benzimidazol-2-yl)methyl]-2-[(trans-4-hydroxycyclohexyl)amino]quinazoline-7-carboxamide] to `COc1ccc2cnc(N[C@H]3CC[C@H](O)CC3)nc2c1` [Example 145, trans-4-[(7-methoxyquinazolin-2-yl)amino]cyclohexanol], the Ki falls from 1.23 µM to 0.123 µM (10-fold).

First: O[C@H]1CC[C@H](Nc2ncc3ccc(O[C@H]4CCOC4)cc3n2)CC1 [Example 160, trans-4-({7-[(3S)-tetrahydrofuran-3-yloxy]quinazolin-2-yl}amino)cyclohexanol]
Second: O[C@H]1CC[C@H](Nc2ncc3ccc(OCC4CCOCC4)cc3n2)CC1 [Example 158, trans-4-{[7-(tetrahydro-2H-pyran-4-ylmethoxy)quinazolin-2-yl]amino}cyclohexanol]
The Ki of the first is 2.9-fold lower: 0.07 µM for the first, 0.201 µM for the second.

Going from `CN1CCC(COc2ccc3cnc(N[C@H]4CC[C@H](O)CC4)nc3c2)CC1` [Example 156, trans-4-({7-[(1-methylpiperidin-4-yl)methoxy]quinazolin-2-yl}amino)cyclohexanol] to `O[C@H]1CC[C@H](Nc2ncc3cccc(OCC4CCCCO4)c3n2)CC1` (stereo partly drawn) [Example 243, trans-4-{[8-(tetrahydro-2H-pyran-2-ylmethoxy)quinazolin-2-yl]amino}cyclohexanol], the Ki falls from 0.988 µM to 0.233 µM (4.2-fold).

First: CC(C)[C@@H](CO)NC(=O)c1cccc2cnc(N[C@H]3CC[C@H](O)CC3)nc12 [Example 445, 2-[(trans-4-hydroxycyclohexyl)amino]-N-[(1S)-1-(hydroxymethyl)-2-methylpropyl]quinazoline-8-carboxamide]
Second: CC[C@H](C)[C@@H](CO)NC(=O)c1ccc2cnc(NC3CCCCC3)nc2c1 [Example 380, 2-(cyclohexylamino)-N-[(1S,2S)-1-(hydroxymethyl)-2-methylbutyl]quinazoline-7-carboxamide]
The Ki of the first is 1.7-fold lower: 0.11 µM for the first, 0.187 µM for the second.
